Experimental data reported in US20260226048A1, “MULTI-CYCLIC IRAK AND FLT3 INHIBITING COMPOUNDS AND USES THEREOF” (CHILDREN'S HOSPITAL MEDICAL CENTER, priority 2023, published 2026).
pKd: −log10 of the molar value.

Tests used:
Conditions in all cases: 11-point 3-fold dilution
[1] = molecular target: T1, FLT3 D835V (Homo sapiens, UniProt P36888, D835V); assay: DiscoverX KINOMEscan competition binding assay, FLT3 D835V
T1 construct: purchased DiscoverX (KINOMEscan); host or cells: E. coli BL21-derived host (T7 phage) or HEK-293
T1 sequence (P36888 27-993 D835V): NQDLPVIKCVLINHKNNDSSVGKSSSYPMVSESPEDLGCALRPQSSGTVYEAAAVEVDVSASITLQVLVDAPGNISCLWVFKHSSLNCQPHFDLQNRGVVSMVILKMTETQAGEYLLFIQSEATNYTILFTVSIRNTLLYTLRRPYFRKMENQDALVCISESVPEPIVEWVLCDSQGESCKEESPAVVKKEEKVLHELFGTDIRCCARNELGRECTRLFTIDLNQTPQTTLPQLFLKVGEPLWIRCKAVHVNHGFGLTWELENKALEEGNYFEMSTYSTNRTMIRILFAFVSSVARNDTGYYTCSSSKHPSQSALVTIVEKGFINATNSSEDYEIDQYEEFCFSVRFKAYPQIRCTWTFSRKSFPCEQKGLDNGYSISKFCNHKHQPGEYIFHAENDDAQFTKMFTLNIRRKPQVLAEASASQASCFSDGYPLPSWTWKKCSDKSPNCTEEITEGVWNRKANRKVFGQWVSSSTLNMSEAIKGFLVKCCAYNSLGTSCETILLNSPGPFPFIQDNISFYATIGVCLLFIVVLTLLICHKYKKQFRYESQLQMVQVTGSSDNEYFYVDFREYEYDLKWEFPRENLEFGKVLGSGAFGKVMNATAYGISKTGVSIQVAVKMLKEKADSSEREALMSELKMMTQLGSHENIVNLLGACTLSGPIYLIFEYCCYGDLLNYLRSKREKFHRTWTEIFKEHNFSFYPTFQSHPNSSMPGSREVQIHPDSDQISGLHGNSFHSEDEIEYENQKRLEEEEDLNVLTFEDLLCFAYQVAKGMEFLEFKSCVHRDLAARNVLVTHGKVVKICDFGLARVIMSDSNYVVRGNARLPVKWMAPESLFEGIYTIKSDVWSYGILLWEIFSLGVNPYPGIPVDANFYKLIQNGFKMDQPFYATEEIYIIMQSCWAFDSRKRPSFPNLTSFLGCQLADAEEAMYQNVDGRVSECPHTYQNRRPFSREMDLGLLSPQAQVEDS
Excerpt: (§1) […]. […] As a result, the data report thermodynamic interaction affinities (Kd values), rather than IC50 values that are dependent on ATP concentrations. The assay uses a DNA-tagged version of the protein kinase, and an immobilized ligand bound to a solid support. Compounds that directly or indirectly prevent kinase binding to the immobilized ligand reduce the amount of kinase captured on the solid support, which is detected using an ultra-sensitive qPCR method. Affinity constants reported from the assay have been reported to be independent of the immobilized ligand used that is coupled to the solid support (See supplemental information in Fabian, M. A. et. al., (2005) Nat. Biotechnol. 23, 329-336; Wodicka, L. M. et. al., (2010) Chem. Biol. 17, 1241-1249.)
(§2) Kinase-tagged T7 phage strains were prepared in an E. coli host derived from the BL21 strain. E. coli were grown to log-phase and infected with T7 phage and incubated with shaking at 32° C. until lysis. The lysates were centrifuged and filtered to remove cell debris. The remaining kinases were produced in HEK-293 cells and subsequently tagged with DNA for qPCR detection. Streptavidin-coated magnetic beads were treated with biotinylated small molecule ligands for 30 minutes at room temperature to generate affinity resins for kinase assays. The liganded beads were blocked with excess biotin and washed with blocking buffer (SeaBlock (Pierce), 1% BSA, 0.05% Tween 20, 1 mM DTT) to remove unbound ligand and to reduce non-specific binding. […] Test compounds were prepared as 111× stocks in 100% DMSO. Kds were determined using an 11-point 3-fold compound dilution series with three DMSO control points. All compounds for Kd measurements are distributed by acoustic transfer (non-contact dispensing) in 100% DMSO. The compounds were then diluted directly into the assays such that the final concentration of DMSO was 0.9%. All reactions were performed in polypropylene 384-well plates. Each was a final volume of 0.02 mL. […] The kinase concentration in the eluates was measured by qPCR.
(§3) Binding constants (Kds) were calculated with a standard dose-response curve using the Hill equation. The Hill Slope was set to −1. Curves were fitted using a non-linear least square fit with the Levenberg-Marquardt algorithm.

[2] = molecular target: T2, FLT3 ITD, F691L (Homo sapiens, UniProt P36888, F691L, form not given); assay: DiscoverX KINOMEscan competition binding assay, FLT3 ITD, F691L
T2 construct: fused on or other part: DNA tag for qPCR detection (kinase-tagged T7 phage, or made in HEK-293 cells and then tagged with DNA)
T2 sequence (P36888 1-993 F691L): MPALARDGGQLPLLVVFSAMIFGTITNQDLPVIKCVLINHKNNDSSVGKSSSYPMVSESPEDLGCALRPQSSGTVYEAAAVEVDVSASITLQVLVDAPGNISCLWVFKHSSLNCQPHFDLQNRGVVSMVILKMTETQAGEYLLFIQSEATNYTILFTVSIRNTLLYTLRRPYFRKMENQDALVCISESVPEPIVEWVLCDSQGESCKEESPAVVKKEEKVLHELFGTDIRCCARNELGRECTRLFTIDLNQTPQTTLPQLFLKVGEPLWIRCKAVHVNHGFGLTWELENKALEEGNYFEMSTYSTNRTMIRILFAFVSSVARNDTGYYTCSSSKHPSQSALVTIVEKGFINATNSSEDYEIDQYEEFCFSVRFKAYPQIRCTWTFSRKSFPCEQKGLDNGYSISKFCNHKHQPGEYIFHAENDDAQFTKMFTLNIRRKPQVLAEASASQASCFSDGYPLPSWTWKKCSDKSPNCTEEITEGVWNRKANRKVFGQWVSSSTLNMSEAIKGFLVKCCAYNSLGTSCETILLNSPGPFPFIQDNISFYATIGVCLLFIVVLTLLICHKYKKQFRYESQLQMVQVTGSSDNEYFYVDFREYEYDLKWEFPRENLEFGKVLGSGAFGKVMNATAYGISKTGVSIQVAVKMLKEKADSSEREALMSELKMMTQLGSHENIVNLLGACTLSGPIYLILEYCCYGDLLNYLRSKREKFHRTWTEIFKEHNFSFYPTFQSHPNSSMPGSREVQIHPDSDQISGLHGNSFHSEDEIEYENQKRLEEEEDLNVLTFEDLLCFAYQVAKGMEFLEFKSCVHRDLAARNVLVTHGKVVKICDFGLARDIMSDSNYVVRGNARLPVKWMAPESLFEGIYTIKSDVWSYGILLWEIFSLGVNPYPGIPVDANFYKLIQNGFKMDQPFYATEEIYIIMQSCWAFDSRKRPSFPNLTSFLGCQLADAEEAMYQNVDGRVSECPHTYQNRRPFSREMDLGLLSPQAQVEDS
Excerpt: as §1, §2, §3

[3] = molecular target: T3, IRAK1 (Homo sapiens, UniProt P51617); assay: DiscoverX KINOMEscan competition binding assay, IRAK1
T3 construct: purchased Reaction Biology (RBC HotSpot)
Excerpt: as §1, §2, §3

T3 sequence (P51617 whole entry): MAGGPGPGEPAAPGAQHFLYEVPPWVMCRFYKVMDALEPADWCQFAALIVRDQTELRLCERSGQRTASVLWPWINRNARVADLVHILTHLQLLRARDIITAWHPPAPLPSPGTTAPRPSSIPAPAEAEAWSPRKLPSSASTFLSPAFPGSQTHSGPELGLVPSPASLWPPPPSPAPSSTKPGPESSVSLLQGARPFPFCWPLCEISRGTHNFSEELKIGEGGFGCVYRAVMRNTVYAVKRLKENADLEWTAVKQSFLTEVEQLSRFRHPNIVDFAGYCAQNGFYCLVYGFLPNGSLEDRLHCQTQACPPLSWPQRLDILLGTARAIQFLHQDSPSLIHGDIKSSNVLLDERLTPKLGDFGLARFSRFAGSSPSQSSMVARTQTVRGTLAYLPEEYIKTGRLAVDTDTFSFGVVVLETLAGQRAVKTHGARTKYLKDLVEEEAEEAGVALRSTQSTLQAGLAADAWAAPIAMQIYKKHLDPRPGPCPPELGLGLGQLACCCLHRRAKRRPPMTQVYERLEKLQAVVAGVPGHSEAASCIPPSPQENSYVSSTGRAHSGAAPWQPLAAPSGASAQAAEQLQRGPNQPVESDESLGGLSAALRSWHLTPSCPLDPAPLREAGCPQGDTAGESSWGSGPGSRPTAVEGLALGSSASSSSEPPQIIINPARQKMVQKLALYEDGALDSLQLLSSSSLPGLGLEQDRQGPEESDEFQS

With `COc1cc2ncc(-c3nc(N[C@H]4CNCC[C@@H]4F)ncc3F)n2nc1C1COC1` [Compound 92a, 5-fluoro-N-((3S,4S)-4-fluoropiperidin-3-yl)-4-(7-methoxy-6-(oxetan-3-yl)imidazo[1,2-b]pyridazin-3-yl)pyrimidin-2-amine] the pKd [1] was over 9.77, the pKd [2] was over 9.77 and the pKd [3] was 9.31.
In the case of `CC(C)(O)c1cn2c(-c3nc(N[C@H]4CNCC[C@@H]4F)ncc3F)cnc2cn1` [Compound 100a, 2-(3-(5-fluoro-2-(((3S,4S)-4-fluoropiperidin-3-yl)amino)pyrimidin-4-yl)imidazo[1,2-a]pyrazin-6-yl)propan-2-ol], the pKd [1] was 8.68, the pKd [2] was 8.47 and the pKd [3] was 8.35.
Work on `CC(C)(O)c1ccc2ncc(-c3nc(N[C@H]4CNCC[C@@H]4F)ncc3F)n2c1` [Compound 46a, 2-(3-(5-fluoro-2-(((3S,4S)-4-fluoropiperidin-3-yl)amino)pyrimidin-4-yl)imidazo[1,2-a]pyridin-6-yl)propan-2-ol] yielded a pKd [1] of 9.28, a pKd [2] of 9.66 and a pKd [3] of 9.15.
With `COc1cc2ncc(-c3nc(N[C@H]4CNCC[C@@H]4F)ncc3F)n2nc1C1CC1` [Compound 1a, 4-(6-cyclopropyl-7-methoxyimidazo[1,2-b]pyridazin-3-yl)-5-fluoro-N-((3S,4S)-4-fluoropiperidin-3-yl)pyrimidin-2-amine] the pKd [1] was over 9.77, the pKd [2] was over 9.77 and the pKd [3] was over 9.77.
Work on `FC(F)COc1cc2ncc(-c3ccnc(N[C@H]4CNCC[C@@H]4F)n3)n2nc1C1CC1` [Compound 4a, 4-(6-cyclopropyl-7-(2,2-difluoroethoxy)imidazo[1,2-b]pyridazin-3-yl)-N-((3 S,4S)-4-fluoropiperidin-3-yl)pyrimidin-2-amine] yielded a pKd [1] of over 9.77, a pKd [2] of over 9.77 and a pKd [3] of 8.11.
With `COc1cc2ncc(-c3nc(N[C@H]4CNCC[C@@H]4F)ncc3F)n2nc1C(C)(C)O` [Compound 45a, 2-(3-(5-fluoro-2-(((3S,4S)-4-fluoropiperidin-3-yl)amino)pyrimidin-4-yl)-7-methoxyimidazo[1,2-b]pyridazin-6-yl)propan-2-ol] the pKd [1] was 9.06, the pKd [2] was 9.72 and the pKd [3] was 8.80.
For `COc1cc2ncc(-c3nc(N[C@H]4CNCC[C@@H]4F)ncc3F)n2nc1N1CCCS1(=O)=O` [Compound 112a, 2-(3-(5-fluoro-2-(((3S,4S)-4-fluoropiperidin-3-yl)amino)pyrimidin-4-yl)-7-methoxyimidazo[1,2-b]pyridazin-6-yl)isothiazolidine 1,1-dioxide], the pKd [1] was over 9.77, the pKd [2] was over 9.77 and the pKd [3] was 8.96.
